In ChEMBL document CHEMBL5370533 (Eur J Med Chem, 2023):

How the values were obtained:
BaF3 [1] = assay: cells; type: functional, cell-based; conditions: Mus musculus, BaF3, 72 h
Description: Antiproliferative activity against mouse BaF3 cells harboring FLT3 ITD/D835V mutant assessed as inhibition of cell growth incubated for 72 hrs

[2] = Toxicity against nu/nu mouse xenografted with human MV4-11 cells assessed as decrease in body weight at 50 mg/kg, po qd for 2 weeks; type: organism-based; conditions: in vivo, 336 h
MV4-11 [3] = assay: animal or person; type: functional, Homo sapiens; conditions: Mus musculus, MV4-11, 336 h, route po, time 2 weeks
Description: Antitumor activity against human MV4-11 cells xenografted in nu/nu mouse assessed as inhibition of tumor growth at 50 mg/kg, po qd for 2 weeks by vernier caliper analysis

[4] = Toxicity against nu/nu mouse xenografted with human MV4-11 cells assessed as animal's mortality at 50 mg/kg, po qd for 2 days; type: organism-based; conditions: in vivo, 48 h, time 2 day
MOLM-13 = assay: Antiproliferative activity against human MOLM-13 cells harboring FLT3 ITD mutant assessed as inhibition of cell growth; type: functional, cell-based
MV4-11 [5] = assay: Antiproliferative activity against human MV4-11 cells harboring FLT3 ITD mutant assessed as inhibition of cell growth incubated for 72 hrs by CellTiter-Glo luminescent assay; type: functional, cell-based; conditions: MV4-11, 72 h
[6] = Cytotoxicity against mouse BaF3 cells assessed as inhibition of cell growth incubated for 72 hrs; type: toxicity, cell-based
BaF3 [7] = assay: cells; type: functional, cell-based; conditions: Mus musculus, BaF3, 72 h; remark: listed apart in the source
Description: Antiproliferative activity against mouse BaF3 cells harboring FLT3 ITD/F691L mutant assessed as inhibition of cell growth incubated for 72 hrs

HL-60 = assay: Antiproliferative activity against human HL-60 cells expressing low level wild type FLT3 assessed as inhibition of cell growth; type: functional, cell-based
K562 = assay: Antiproliferative activity against human K562 cells deficit of oncogenic FLT3 assessed as inhibition of cell growth; type: functional, cell-based
BaF3 [8] = assay: Antiproliferative activity against mouse BaF3 cells harboring FLT3 D835V mutant assessed as inhibition of cell growth incubated for 72 hrs; type: functional, cell-based; conditions: BaF3, 72 h
[9] = Cytotoxicity against human PBMC cells assessed as inhibition of cell growth; type: toxicity, cell-based
BaF3 [10] = assay: cells; type: functional, cell-based; conditions: Mus musculus, BaF3, 72 h; remark: listed apart in the source
Description: Antiproliferative activity against mouse BaF3 cells harboring FLT3 ITD mutant assessed as inhibition of cell growth incubated for 72 hrs

BaF3 [11] = assay: cells; type: functional, cell-based; conditions: Mus musculus, BaF3, 72 h; remark: listed apart in the source
Description: Antiproliferative activity against mouse BaF3 cells harboring FLT3 ITD/N676D mutant assessed as inhibition of cell growth incubated for 72 hrs

[12] = biological target: T1, Cyclin-dependent kinase 2 (Homo sapiens, UniProt P24941); assay: Inhibition of human CDK2 assessed as enzyme activity at 0.123 uM pretreated for 20 mins followed by [gamma-33P]-ATP addition and measured after 120 mins in presence of 10 uM ATP by radiometric Hot-SpotSM Kinase assay; design: scale not given: the % may be the effect or the level left; conditions: time 140.0 min
[13] = biological target: T2, Cyclin-dependent kinase 6 (Homo sapiens, UniProt Q00534); assay: Inhibition of human CDK6 assessed as enzyme activity at 0.123 uM pretreated for 20 mins followed by [gamma-33P]-ATP addition and measured after 120 mins in presence of 10 uM ATP by radiometric Hot-SpotSM Kinase assay; design: scale not given: the % may be the effect or the level left; conditions: time 140.0 min
[14] = biological target: T3, Receptor-type tyrosine-protein kinase FLT3 (Homo sapiens, UniProt P36888); assay: Inhibition of human FLT3 using EAIYAAPFAKKK and [gamma-33P]-ATP as substrate pretreated for 20 mins followed by [gamma-33P]-ATP addition and measured after 120 mins in presence of 10 uM ATP by radiometric Hot-SpotSM Kinase assay
T3 sequence (P36888 whole entry): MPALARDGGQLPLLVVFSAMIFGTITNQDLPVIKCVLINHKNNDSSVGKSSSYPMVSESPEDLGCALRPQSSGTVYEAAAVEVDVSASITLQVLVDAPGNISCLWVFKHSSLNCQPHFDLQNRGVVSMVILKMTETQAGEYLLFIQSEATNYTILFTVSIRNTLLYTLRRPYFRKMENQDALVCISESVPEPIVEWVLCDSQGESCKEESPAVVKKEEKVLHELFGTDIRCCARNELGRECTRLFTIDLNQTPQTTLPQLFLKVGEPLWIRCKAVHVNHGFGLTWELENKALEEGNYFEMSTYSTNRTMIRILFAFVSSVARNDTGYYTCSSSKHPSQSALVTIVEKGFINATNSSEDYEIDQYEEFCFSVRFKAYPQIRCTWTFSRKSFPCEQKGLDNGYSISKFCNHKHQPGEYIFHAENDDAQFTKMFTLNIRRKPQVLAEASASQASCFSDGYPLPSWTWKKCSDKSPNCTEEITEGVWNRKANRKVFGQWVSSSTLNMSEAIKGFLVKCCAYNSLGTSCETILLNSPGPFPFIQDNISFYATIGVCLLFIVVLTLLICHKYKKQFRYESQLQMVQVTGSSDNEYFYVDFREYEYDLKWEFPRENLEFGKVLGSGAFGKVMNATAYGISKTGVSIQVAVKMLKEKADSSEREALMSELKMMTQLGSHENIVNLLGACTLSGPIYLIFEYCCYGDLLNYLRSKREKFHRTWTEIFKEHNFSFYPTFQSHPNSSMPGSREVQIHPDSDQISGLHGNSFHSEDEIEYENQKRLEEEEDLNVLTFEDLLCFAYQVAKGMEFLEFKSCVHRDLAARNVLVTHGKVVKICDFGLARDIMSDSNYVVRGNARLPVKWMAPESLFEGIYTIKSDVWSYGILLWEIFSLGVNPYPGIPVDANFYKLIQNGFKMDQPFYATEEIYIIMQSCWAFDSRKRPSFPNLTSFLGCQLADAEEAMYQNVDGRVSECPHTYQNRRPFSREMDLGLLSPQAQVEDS

[15] = biological target: Receptor-type tyrosine-protein kinase FLT3 (Homo sapiens) (UniProt P36888); assay: Inhibition of human FLT3 assessed as enzyme activity using EAIYAAPFAKKK and [gamma-33P]-ATP as substrate at 0.123 uM pretreated for 20 mins followed by [gamma-33P]-ATP addition and measured after 120 mins in presence of 10 uM ATP by radiometric Hot-SpotSM Kinase assay; design: scale not given: the % may be the effect or the level left; conditions: time 140.0 min
U-937 = assay: Antiproliferative activity against human U-937 cells expressing low level wild type FLT3 assessed as inhibition of cell growth; type: functional, cell-based
THP-1 = assay: Antiproliferative activity against human THP-1 cells expressing wild type FLT3 assessed as inhibition of cell growth; type: functional, cell-based
[16] = biological target: T1, Cyclin-dependent kinase 2; assay: Inhibition of human CDK2 pretreated for 20 mins followed by [gamma-33P]-ATP addition and measured after 120 mins in presence of 10 uM ATP by radiometric Hot-SpotSM Kinase assay
[17] = biological target: T2, Cyclin-dependent kinase 6; assay: Inhibition of human CDK6 pretreated for 20 mins followed by [gamma-33P]-ATP addition and measured after 120 mins in presence of 10 uM ATP by radiometric Hot-SpotSM Kinase assay

T2 sequence (Q00534 whole entry): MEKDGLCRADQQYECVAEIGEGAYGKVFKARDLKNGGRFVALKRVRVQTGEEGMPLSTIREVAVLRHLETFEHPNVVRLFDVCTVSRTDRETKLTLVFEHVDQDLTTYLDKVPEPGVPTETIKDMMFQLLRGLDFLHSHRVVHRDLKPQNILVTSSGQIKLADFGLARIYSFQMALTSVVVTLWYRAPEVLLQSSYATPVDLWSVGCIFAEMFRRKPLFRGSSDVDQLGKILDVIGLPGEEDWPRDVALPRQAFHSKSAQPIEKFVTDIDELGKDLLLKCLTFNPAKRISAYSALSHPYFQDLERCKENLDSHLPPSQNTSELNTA

Structure (SMILES) | IC50 (MV4-11 [5]) [nM] | Activity [12] [%] | Activity [13] [%] | IC50 [14] [nM] | further results
CN1CCN(Cc2ccc(NC(=O)c3n[nH]cc3Nc3ncnc4[nH]ccc34)cc2)CC1 | 7 | – | – | – | IC50 (BaF3 [1]): 8 nM; Activity [2]: Toxic; inhibition in vivo at 50 mg/kg (MV4-11 [3]): 94.6%; Activity [4]: Toxic; IC50 (MOLM-13): 5.4 nM; IC50 at 72 h [6]: 155 nM; IC50 (BaF3 [7]): 56 nM; IC50 (HL-60): 770 nM; IC50 (K562): 795 nM; IC50 (BaF3 [8]): 39 nM; IC50 [9]: 126 nM; IC50 (BaF3 [10]): 38 nM; IC50 (BaF3 [11]): 73 nM
CN1CCN(Cc2ccc(NC(=O)c3n[nH]cc3Nc3cc(C4CCCC4)ncn3)cc2)CC1 | 200 | 78.8 | 88.9 | 19.4 | –
O=C(Nc1ccc(CN2CCOCC2)cc1)c1n[nH]cc1Nc1cc(C2CCCC2)ncn1 | 210 | 71.4 | 92.6 | 29.7 | –
O=C(Nc1ccc(N2CCNCC2)cc1)c1n[nH]cc1Nc1cc(OCC2CCCC2)ncn1 | 90 | 51 | 51.3 | 11.3 | –
O=C(Nc1ccc(N2CCNCC2)cc1)c1n[nH]cc1Nc1cc(NC2CCCC2)ncn1 | 100 | 69.5 | 72.9 | 21.2 | –
Cc1cnc(Nc2c[nH]nc2C(=O)Nc2ccc(N3CCNCC3)cc2)nc1Oc1ccccc1 | – | 88.6 | 88.4 | – | Activity [15]: 83%
O=C(Nc1ccc(N2CCNCC2)cc1)c1n[nH]cc1Nc1cc(-c2ccccc2)ncn1 | – | 89.3 | 101 | 45.2 | –
O=C(Nc1ccc(N2CCNCC2)cc1)c1n[nH]cc1Nc1cc(C2CCCC2)ncn1 | 100 | 79.3 | 86.3 | 15.4 | –
O=C(Nc1ccc(N2CCNCC2)cc1)c1n[nH]cc1Nc1cc(OC2CCCCCC2)ncn1 | – | 54.6 | 58.1 | 28.8 | –
CC(C)(C)c1cc(NC(=O)Nc2ccc(-c3cn4c(n3)sc3cc(OCCN5CCOCC5)ccc34)cc2)no1 [QUIZARTINIB] | 5.3 | – | – | – | IC50 (U-937): 251 nM; IC50 (BaF3 [1]): 93 nM; IC50 (MOLM-13): 15.2 nM; IC50 at 72 h [6]: > 10000 nM; IC50 (HL-60): 771 nM; IC50 (K562): 291 nM; IC50 (BaF3 [8]): 100 nM; IC50 (THP-1): 201 nM; IC50 [9]: 1260 nM; IC50 (BaF3 [10]): 1 nM
O=C(Nc1ccc(N2CCNCC2)cc1)c1n[nH]cc1Nc1cc(OC2CCCCC2)ncn1 | 130 | 53.1 | 58.4 | 19.2 | –
O=C(Nc1ccc(N2CCOCC2)cc1)c1n[nH]cc1Nc1cc(C2CCCC2)ncn1 | – | 83.3 | 93.3 | 58.3 | –
CN1CCN(Cc2ccc(NC(=O)c3n[nH]cc3Nc3ccncn3)cc2)CC1 | – | – | – | 7.29 | IC50 [16]: 23 nM; IC50 [17]: 14.3 nM
CO[C@@H]1[C@H](N(C)C(=O)c2ccccc2)C[C@H]2O[C@]1(C)n1c3ccccc3c3c4c(c5c6ccccc6n2c5c31)C(=O)NC4 [MIDOSTAURIN] | – | – | – | – | IC50 at 72 h [6]: 320 nM; IC50 (BaF3 [8]): 4 nM
O=C(Nc1ccc(N2CCNCC2)cc1)c1n[nH]cc1Nc1cc(OC2CCCC2)ncn1 | 110 | – | – | 7.84 | IC50 [16]: 135 nM; IC50 [17]: 158 nM
Cc1cc(Oc2ccccc2)nc(Nc2c[nH]nc2C(=O)Nc2ccc(N3CCNCC3)cc2)n1 | – | 78.3 | 91.5 | – | Activity [15]: 71.7%
Cc1nc(Nc2c[nH]nc2C(=O)Nc2ccc(N3CCNCC3)cc2)cc(Oc2ccccc2)n1 | – | 82.3 | 88.8 | 11.2 | –
O=C(Nc1ccc(N2CCNCC2)cc1)c1n[nH]cc1Nc1cc(C2CCCCCC2)ncn1 | – | 84.8 | 94.3 | 28.9 | –
O=C(Nc1ccc(N2CCNCC2)cc1)c1n[nH]cc1Nc1cc(C2CC2)ncn1 | 80 | – | – | 8.42 | IC50 [16]: 193 nM; IC50 [17]: 125 nM
O=C(Nc1ccc(N2CCNCC2)cc1)c1n[nH]cc1Nc1cc(-c2ccoc2)ncn1 | – | 83.5 | 87.5 | 41.3 | –
O=C(Nc1ccc(N2CCNCC2)cc1)c1n[nH]cc1Nc1cc(C2=CCOCC2)ncn1 | – | 76.5 | 86.4 | 25.1 | –
